Laboratory results taken from patent US20210059590A1, “IDENTIFICATION OF AND TREATMENT FOR PERSONS AT HIGH RISK FOR DEVELOPING MAJOR DEPRESSIVE DISORDER” (The Trustees of Columbia University in the City of New York, priority 2018, published 2021).
Like-named read-outs stand apart in the source and are kept apart here.

Assay: Plasma free fraction (fP) of the PET tracer
Type: in vitro ADME, human
Details: for fraction unbound: human, plasma
Excerpt: Arterial plasma radioactivity, metabolites, and plasma free fraction (fP) were collected and assayed as previously described (Parsey et al., 2006; Parsey et al., 2000). Unmetabolized parent fraction levels were fit with a Hill function (Wu et al., 2007). The input function was corrected for unmetabolized tracer by multiplying the total plasma counts with the interpolated parent fraction. The metabolite-corrected arterial input function was fit as the combination of a straight line and the sum of three decreasing exponentials, describing the function before and after the peak, respectively.

COc1ccccc1N1CCN(CCN(C(=O)C2CCCCC2)c2ccccn2)CC1 [[^11C]WAY-100635, N-[2-[4-(2-methoxyphenyl)-1-piperazinyl]ethyl]-N-2-pyridinylcyclohexanecarboxamide]
Percent Free Fraction (Depressed NRM MDD subjects, N=30, mean ± SD): 6.15 ± 1.72% | Percent Free Fraction (Healthy Volunteers (HV), N=51, mean ± SD): 8.10 ± 2.39% | fraction unbound (Depressed NRM MDD subjects, N=30, mean ± SD, read-out: Percent Free Fraction): ~0.062 | fraction unbound (Healthy Volunteers (HV), N=51, mean ± SD, read-out: Percent Free Fraction): ~0.08 | fraction unbound (High Risk (HR) subjects, N=9, mean ± SD, read-out: Percent Free Fraction): 0.065 | fraction unbound (Medication Exposed MDD patients, n=66, off antidepressants at least two weeks, read-out: Plasma free fraction (fp)): 0.07 ± 0.02 | fraction unbound (Medication Naïve MDD patients, n=32, read-out: Plasma free fraction (fp)): 0.06 ± 0.02
